{"source": "patent US6100074A", "about": "“Mutant mono-oxygenase cytochrome P-450 cam” (BG plc, priority 1994, dated 2000)", "key": {"wild type P450cam [1]": {"biological_target": "T1, wild type P450cam (Pseudomonas putida, UniProt P00183)", "T1 sequence (P00183 whole entry)": "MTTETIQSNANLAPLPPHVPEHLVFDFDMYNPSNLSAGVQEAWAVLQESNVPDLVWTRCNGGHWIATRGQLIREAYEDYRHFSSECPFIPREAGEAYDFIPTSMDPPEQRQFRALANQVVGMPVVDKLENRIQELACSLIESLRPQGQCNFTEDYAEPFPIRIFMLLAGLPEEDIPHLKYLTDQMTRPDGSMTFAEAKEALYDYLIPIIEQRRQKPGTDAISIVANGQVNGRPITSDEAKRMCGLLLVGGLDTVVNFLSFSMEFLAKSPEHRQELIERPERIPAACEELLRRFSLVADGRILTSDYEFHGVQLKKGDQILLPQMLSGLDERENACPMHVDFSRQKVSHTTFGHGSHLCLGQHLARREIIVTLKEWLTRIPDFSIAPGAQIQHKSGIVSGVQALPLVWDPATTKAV", "format": "binding", "conditions": "Wild type; 200 μM test compound, phosphate buffer pH 7.4"}, "wild type P450cam [2]": {"biological_target": "T1, wild type P450cam", "test": "biochemical", "format": "binding", "conditions": "read-out: Vs DTT (percentage displacement of DTT bound to P-450)"}, "P-450cam mutant Y96A": {"biological_target": "P-450cam mutant Y96A (Pseudomonas putida, UniProt P00183, Y97A)", "sequence (P00183 2-415 Y97A)": "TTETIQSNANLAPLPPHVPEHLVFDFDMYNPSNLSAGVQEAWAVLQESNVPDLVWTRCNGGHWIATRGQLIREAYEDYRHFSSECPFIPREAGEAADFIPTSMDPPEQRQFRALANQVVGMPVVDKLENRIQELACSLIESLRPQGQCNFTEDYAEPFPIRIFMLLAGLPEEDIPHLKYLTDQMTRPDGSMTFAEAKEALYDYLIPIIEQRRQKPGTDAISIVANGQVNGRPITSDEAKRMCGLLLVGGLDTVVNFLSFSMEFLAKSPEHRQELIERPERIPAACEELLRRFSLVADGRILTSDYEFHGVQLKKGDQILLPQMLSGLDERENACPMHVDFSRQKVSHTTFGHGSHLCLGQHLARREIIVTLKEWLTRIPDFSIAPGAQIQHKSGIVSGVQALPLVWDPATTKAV", "test": "biochemical", "format": "binding", "conditions": "read-out: Vs DTT (percentage displacement of DTT bound to P-450); for percent displacement of bound DTT at 200 µM: Mutant Y96A, 200 μM DTT, 200 μM test compound, phosphate buffer"}, "[3]": {"biological_target": "T2, P450cam mutant Y96A, C334A (Pseudomonas putida, UniProt P00183, C335A/Y97A)", "T2 construct": "reconstituted with putidaredoxin and putidaredoxin reductase", "T2 sequence (P00259 whole entry)": "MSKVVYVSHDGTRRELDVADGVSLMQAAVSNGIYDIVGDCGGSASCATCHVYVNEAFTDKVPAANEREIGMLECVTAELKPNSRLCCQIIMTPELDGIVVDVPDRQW", "T2 sequence (P00183 2-415 Y97A/C335A)": "as the sequence (P00183 2-415 Y97A) above, with C334A counted along it", "T2 sequence (P16640 whole entry, further chain)": "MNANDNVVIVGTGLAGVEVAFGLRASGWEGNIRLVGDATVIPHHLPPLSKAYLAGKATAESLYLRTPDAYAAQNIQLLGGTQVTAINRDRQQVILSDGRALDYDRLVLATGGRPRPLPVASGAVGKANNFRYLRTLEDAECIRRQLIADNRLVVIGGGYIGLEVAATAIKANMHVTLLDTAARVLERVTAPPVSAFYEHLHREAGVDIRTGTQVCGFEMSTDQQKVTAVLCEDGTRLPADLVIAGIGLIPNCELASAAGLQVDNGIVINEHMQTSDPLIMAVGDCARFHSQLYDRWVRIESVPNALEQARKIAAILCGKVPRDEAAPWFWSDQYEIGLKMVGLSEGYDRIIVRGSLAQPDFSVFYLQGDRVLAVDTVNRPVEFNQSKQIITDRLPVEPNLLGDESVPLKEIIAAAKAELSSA", "format": "biochemical, P. putida", "conditions": "also contains C334A", "protocol": "A solution containing 10 μM putidaredoxin, 2 μM putidaredoxin reductase, 1 μM cytochrome P-450cam mono-oyxgenase (wild-type or mutant) and 1 mM diphenylmethane in 100 mM KC1, 20 mM KH2 PO4 pH7.4 was preincubated at 25° C. in a shaker for 5 min. The enzymatic reaction was initiated by firstly adding NADH to a total concentration of 2 mM. Further four aliquots of NADH (to increase the NADH concentration by 1 mM each time) were added in intervals of 5 min and the reaction quenched after 30 min by adding 0.5 ml chloroform. The chloroform layer was analysed by gas chromatography.\n(§1) Reaction products for some substrate compounds have been purified by high performance liquid chromatography and identified by mass spectroscopy, nuclear magnetic resonance, and/or co-elution. […] Table 4(a) to 4(h) details the product distributions for mutant and substrate combinations where this has been elucidated to date.\nAll mutants listed below also contain the C334A mutation.\nTurnover rate measured as NADH consumption rate\n(nmole NADH/nmole P450cam/s)."}, "[4]": {"biological_target": "T2, P450cam mutant Y96A, C334A", "format": "biochemical, P. putida", "protocol": "(§2) […] The enzymatic reaction was initiated by firstly adding NADH to a total concentration of 2 mM. Further four aliquots of NADH (to increase the NADH concentration by 1 mM each time) were added in intervals of 5 min and the reaction quenched after 30 min by adding 0.5 ml chloroform. The chloroform layer was analysed by gas chromatography.\nas §1\n(§3) Product structure and distributions following oxidation of substrates\n(§4) active site mutants. All mutants shown below also contain the C334A"}, "[5]": {"biological_target": "T3, P450cam mutant Y96F, C334A (Pseudomonas putida, UniProt P00183, C335A/Y97F)", "T3 construct": "reconstituted with putidaredoxin and putidaredoxin reductase", "T3 sequence (P16640 whole entry)": "as the sequence (P16640 whole entry, further chain) above", "T3 sequence (P00183 2-415 Y97F/C335A)": "as the sequence (P00183 2-415 Y97A) above, with A96F, C334A counted along it", "T3 sequence (P00259 whole entry, further chain)": "as the sequence (P00259 whole entry) above", "format": "biochemical, P. putida", "protocol": "as §2, §1, §3, §4"}, "[6]": {"conditions": "Wild type, 200 μM DTT, 200 μM test compound, phosphate buffer"}}, "note": "Like-named read-outs stand apart in the source and are kept apart here."}
{"smiles": "c1ccc2c(c1)CCCC2", "note": "[1,2,3,4-Tetrahydro naphthalene]", "values": [{"measurement": "ΔSpin high/low (percentage of P-450 converted from low- to high-spin)", "setting": "wild type P450cam [1]", "value": 5, "unit": "%"}, {"measurement": "inhibition at 200 µM", "setting": "wild type P450cam [2]; [6]", "value": 10, "unit": "%"}, {"measurement": "percent displacement of bound DTT at 200 µM", "setting": "P-450cam mutant Y96A", "value": 40, "unit": "%"}]}
{"smiles": "C1=Cc2ccccc2CC1", "note": "[1,2-Dihydronaphthalene]", "values": [{"measurement": "ΔSpin high/low (percentage of P-450 converted from low- to high-spin)", "setting": "wild type P450cam [1]", "value": 5, "unit": "%"}, {"measurement": "inhibition at 200 µM", "setting": "wild type P450cam [2]; [6]", "value": 20, "unit": "%"}, {"measurement": "percent displacement of bound DTT at 200 µM", "setting": "P-450cam mutant Y96A", "value": 90, "unit": "%"}]}
{"smiles": "CCc1cccc2ccccc12", "note": "[1-Ethylnaphthalene]", "values": [{"measurement": "percent displacement of bound DTT at 200 µM", "setting": "P-450cam mutant Y96A", "value": 20, "unit": "%"}]}
{"smiles": "CC(=O)Oc1cccc2ccccc12", "note": "[1-Naphthylacetate]", "values": [{"measurement": "inhibition at 200 µM", "setting": "wild type P450cam [2]; [6]", "value": 5, "unit": "%"}, {"measurement": "percent displacement of bound DTT at 200 µM", "setting": "P-450cam mutant Y96A", "value": 5, "unit": "%"}]}
{"smiles": "CCCC(=O)Oc1cccc2ccccc12", "note": "[1-Naphthylbutyrate]", "values": [{"measurement": "inhibition at 200 µM", "setting": "wild type P450cam [2]; [6]", "value": 5, "unit": "%"}, {"measurement": "percent displacement of bound DTT at 200 µM", "setting": "P-450cam mutant Y96A", "value": 5, "unit": "%"}]}
{"smiles": "CCC(=O)Oc1cccc2ccccc12", "note": "[1-Naphthylpropionate]", "values": [{"measurement": "inhibition at 200 µM", "setting": "wild type P450cam [2]; [6]", "value": 20, "unit": "%"}, {"measurement": "percent displacement of bound DTT at 200 µM", "setting": "P-450cam mutant Y96A", "value": 20, "unit": "%"}]}
{"smiles": "CCC(C)(C)C", "note": "[2,2-dimethyl butane]", "values": [{"measurement": "Turnover rate measured as NADH consumption rate", "setting": "[3]", "value": "14.0 nmole NADH/nmole P450cam/s"}]}
{"smiles": "CC(C)C(C)C", "note": "[2,3-dimethyl butane]", "values": [{"measurement": "Turnover rate measured as NADH consumption rate", "setting": "[3]", "value": "16.8 nmole NADH/nmole P450cam/s"}]}
{"smiles": "CCc1ccc2ccccc2c1", "note": "[2-Ethylnaphthalene]", "values": [{"measurement": "percent displacement of bound DTT at 200 µM", "setting": "P-450cam mutant Y96A", "value": 20, "unit": "%"}]}
{"smiles": "O=Cc1ccc2c(c1)Cc1ccccc1-2", "note": "[2-Fluorencarboxzaldehyde]", "values": [{"measurement": "percent displacement of bound DTT at 200 µM", "setting": "P-450cam mutant Y96A", "value": 50, "unit": "%"}]}
{"smiles": "CC(=O)Oc1ccc2ccccc2c1", "note": "[2-Naphthylacetate]", "values": [{"measurement": "inhibition at 200 µM", "setting": "wild type P450cam [2]; [6]", "value": 5, "unit": "%"}, {"measurement": "percent displacement of bound DTT at 200 µM", "setting": "P-450cam mutant Y96A", "value": 5, "unit": "%"}]}
{"smiles": "CCC(C)C", "note": "[2-methyl butane]", "values": [{"measurement": "Turnover rate measured as NADH consumption rate", "setting": "[3]", "value": "4.6 nmole NADH/nmole P450cam/s"}]}
{"smiles": "CCCCCC(C)C", "note": "[2-methyl heptane]", "values": [{"measurement": "Turnover rate measured as NADH consumption rate", "setting": "[3]", "value": "2.1 nmole NADH/nmole P450cam/s"}]}
{"smiles": "CCCCC(C)C", "note": "[2-methyl hexane]", "values": [{"measurement": "Turnover rate measured as NADH consumption rate", "setting": "[3]", "value": "10.6 nmole NADH/nmole P450cam/s"}, {"measurement": "Relative activity (WT = 1)", "setting": "[4]", "value": 2.6}, {"measurement": "Products (%): 2-methyl-2-hexanol", "setting": "[4]; 2-methyl hexane", "value": 74, "unit": "%"}, {"measurement": "Products (%): 2-methyl-3-hexanol", "setting": "[4]; 2-methyl hexane", "value": 4, "unit": "%"}, {"measurement": "Products (%): 5-methyl-2-hexanol", "setting": "[4]; 2-methyl hexane", "value": 8, "unit": "%"}, {"measurement": "Products (%): 5-methyl-2-hexanone", "setting": "[4]; 2-methyl hexane", "value": 14, "unit": "%"}, {"measurement": "Relative activity (WT = 1)", "setting": "[5]", "value": 2.3}, {"measurement": "Products (%): 2-methyl-2-hexanol", "setting": "[5]; 2-methyl hexane", "value": 72, "unit": "%"}, {"measurement": "Products (%): 2-methyl-3-hexanol", "setting": "[5]; 2-methyl hexane", "value": 7, "unit": "%"}, {"measurement": "Products (%): 5-methyl-2-hexanol", "setting": "[5]; 2-methyl hexane", "value": 5, "unit": "%"}, {"measurement": "Products (%): 5-methyl-2-hexanone", "setting": "[5]; 2-methyl hexane", "value": 16, "unit": "%"}]}
{"smiles": "CCC(CC)CC", "note": "[3-ethyl pentane]", "values": [{"measurement": "Turnover rate measured as NADH consumption rate", "setting": "[3]", "value": "16.2 nmole NADH/nmole P450cam/s"}]}
{"smiles": "O=C1c2ccccc2-c2ccccc21", "note": "[9-Fluorenone]", "values": [{"measurement": "inhibition at 200 µM", "setting": "wild type P450cam [2]; [6]", "value": 20, "unit": "%"}, {"measurement": "percent displacement of bound DTT at 200 µM", "setting": "P-450cam mutant Y96A", "value": 5, "unit": "%"}]}
{"smiles": "CC1(C)[C@@H]2CC[C@@]1(C)C(=O)C2=O", "note": "[(1R)-(-)-Camphorquinone]", "values": [{"measurement": "ΔSpin high/low (percentage of P-450 converted from low- to high-spin)", "setting": "wild type P450cam [1]", "value": 80, "unit": "%"}, {"measurement": "inhibition at 200 µM", "setting": "wild type P450cam [2]; [6]", "value": 80, "unit": "%"}, {"measurement": "percent displacement of bound DTT at 200 µM", "setting": "P-450cam mutant Y96A", "value": 80, "unit": "%"}]}
{"smiles": "CC1(C)C(=O)[C@]2(C)CC[C@H]1C2", "note": "[(1R)-(-)-Fenchone]", "values": [{"measurement": "ΔSpin high/low (percentage of P-450 converted from low- to high-spin)", "setting": "wild type P450cam [1]", "value": 40, "unit": "%"}, {"measurement": "inhibition at 200 µM", "setting": "wild type P450cam [2]; [6]", "value": 70, "unit": "%"}, {"measurement": "percent displacement of bound DTT at 200 µM", "setting": "P-450cam mutant Y96A", "value": 80, "unit": "%"}]}
{"smiles": "C=C(C)[C@H]1CC=C(C)C(=O)C1", "note": "[(S)-(+)-Carvone]", "values": [{"measurement": "ΔSpin high/low (percentage of P-450 converted from low- to high-spin)", "setting": "wild type P450cam [1]", "value": 10, "unit": "%"}, {"measurement": "inhibition at 200 µM", "setting": "wild type P450cam [2]; [6]", "value": 60, "unit": "%"}, {"measurement": "percent displacement of bound DTT at 200 µM", "setting": "P-450cam mutant Y96A", "value": 80, "unit": "%"}]}
{"smiles": "O=C1c2ccccc2Cc2ccccc21", "note": "[Anthrone]", "values": [{"measurement": "inhibition at 200 µM", "setting": "wild type P450cam [2]; [6]", "value": 5, "unit": "%"}, {"measurement": "percent displacement of bound DTT at 200 µM", "setting": "P-450cam mutant Y96A", "value": 5, "unit": "%"}]}
{"smiles": "c1ccc(COCc2ccccc2)cc1", "note": "[Benzylether]", "values": [{"measurement": "inhibition at 200 µM", "setting": "wild type P450cam [2]; [6]", "value": 5, "unit": "%"}]}
{"smiles": "c1ccc(CCc2ccccc2)cc1", "note": "[Bibenzyl]", "values": [{"measurement": "percent displacement of bound DTT at 200 µM", "setting": "P-450cam mutant Y96A", "value": 55, "unit": "%"}]}
{"smiles": "c1ccc(-c2ccccc2)cc1", "note": "[Biphenyl]", "values": [{"measurement": "inhibition at 200 µM", "setting": "wild type P450cam [2]", "value": 20, "unit": "%"}, {"measurement": "inhibition at 200 µM", "setting": "P-450cam mutant Y96A", "value": 90, "unit": "%"}]}
